The values below come from patent US8580920B2, “Peptides useful for skin lightening” (Conopco, Inc., priority 2009, dated 2013).

Read-outs that look alike come from different tables or passages of the source. Bridges are numbered along the chain shown (N, C = ends).

The subject of the test is human epidermal keratinocytes neonatal (HeKn) and human epidermal melanocytes neonatal darkly pigmented (HeMnDP) co-culture. As to conditions: 72 hours, with respect to untreated control.

Protocol: The ability of various materials to act as skin lightening agents was measured using the melanin content assay. The experiments were carried out as per the following procedure:
A 2:1 ratio mix containing 100 000 human epidermal keratinocytes neonatal (HeKn) (neonatal foreskin keratinocytes from Cascade Biologicals) and 50 000 human epidermal melanocytes neonatal darkly pigmented (HeMnDP) (darkly pigmenting cells neonatal foreskin melanocytes from Cascade Biologicals) were seeded per well, in a 24 well cell culture plate, to establish a co-culture system. After overnight incubation, cells were treated with fresh media containing the test actives (untreated or vehicle controls set up in parallel) and incubated for 72 hours after treatment. Then media was removed and replaced with 80 μl of dimethyl sulphoxide (DMSO). The plate was further incubated with DMSO for 1 hour at 65° C., after which the well contents were triturated and the same sample used to assay both for melanin content (read at 450 nm in a plate reader) and protein estimation (regular BiCinchoninic Acid method, kit from Peirce). % reduction in melanin was with respect to untreated control.

For `O=c1cc(CO)occ1O` [Kojic acid, reference compound], under “100 μM”, the “% REDUCTION IN MELANIN CONTENT” value is reported as 19 (±1) %.
Regarding “-Gly-Cys-His-Gly-His-Pro-Phe-Ala-Pro-Cys-Ala- [Peptide 2] (H-GCHGHPFAPCA-OH; disulfide 2-10; N-terminus and C-terminus assumed; SMILES C[C@H](NC(=O)[C@@H]1CSSC[C@H](NC(=O)CN)C(=O)N[C@@H](Cc2c[nH]cn2)C(=O)NCC(=O)N[C@@H](Cc2c[nH]cn2)C(=O)N2CCC[C@H]2C(=O)N[C@@H](Cc2ccccc2)C(=O)N[C@@H](C)C(=O)N2CCC[C@H]2C(=O)N1)C(=O)O)”, the “% REDUCTION IN MELANIN CONTENT” value (46 μM) is on record as 12 (±10) %.
Consider “-Gly-Cys-Leu-Ser-Arg-His-Val-Leu-Gln-Cys-Ala- [Peptide 1]”, for which the “% REDUCTION IN MELANIN CONTENT” value by setting is: (42 μM) 5 (±2) %; (420 μM) 22 (±3) %.
